Source: ChEMBL document CHEMBL5291721, “A preclinical secondary pharmacology resource illuminates target-adverse drug reaction associations of marketed drugs” (Nat Commun, 2023)

Columns and labels:
[1] = biological target: Neurotensin receptor type 1 (Homo sapiens, UniProt P30989)
[2] = biological target: T1, Corticotropin-releasing factor receptor 1 (Homo sapiens, UniProt P34998)
T1 sequence (P34998 whole entry): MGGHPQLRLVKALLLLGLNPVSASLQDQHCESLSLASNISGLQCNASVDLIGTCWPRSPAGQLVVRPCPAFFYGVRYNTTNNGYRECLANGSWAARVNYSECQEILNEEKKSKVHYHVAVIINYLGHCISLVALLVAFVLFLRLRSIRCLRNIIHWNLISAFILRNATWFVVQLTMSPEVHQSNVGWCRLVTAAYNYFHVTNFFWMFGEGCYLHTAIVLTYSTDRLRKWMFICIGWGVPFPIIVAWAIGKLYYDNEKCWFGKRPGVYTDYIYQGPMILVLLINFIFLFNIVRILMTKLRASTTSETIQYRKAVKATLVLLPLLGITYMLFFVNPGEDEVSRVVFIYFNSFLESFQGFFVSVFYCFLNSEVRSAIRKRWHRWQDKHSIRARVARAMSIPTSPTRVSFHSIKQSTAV

Histamine H1 receptor = Histamine H1 receptor (Homo sapiens, UniProt P35367)
[3] = biological target: T2, Endothelin receptor type B (Homo sapiens, UniProt P24530)
T2 sequence (P24530 whole entry): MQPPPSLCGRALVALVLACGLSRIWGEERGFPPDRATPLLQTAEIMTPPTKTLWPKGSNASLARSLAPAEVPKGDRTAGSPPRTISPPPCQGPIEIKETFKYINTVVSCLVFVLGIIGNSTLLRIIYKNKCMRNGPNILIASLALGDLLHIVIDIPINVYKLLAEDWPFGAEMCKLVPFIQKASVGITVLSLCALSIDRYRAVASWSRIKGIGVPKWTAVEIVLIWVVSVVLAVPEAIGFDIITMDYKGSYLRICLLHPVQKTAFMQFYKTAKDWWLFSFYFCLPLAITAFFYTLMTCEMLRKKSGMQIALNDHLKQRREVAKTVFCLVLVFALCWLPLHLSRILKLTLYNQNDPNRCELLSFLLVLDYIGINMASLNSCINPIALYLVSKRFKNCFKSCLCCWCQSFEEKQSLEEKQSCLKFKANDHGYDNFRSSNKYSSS

B1 bradykinin receptor = biological target: T3, B1 bradykinin receptor (Homo sapiens, UniProt P46663)
T3 sequence (P46663 whole entry): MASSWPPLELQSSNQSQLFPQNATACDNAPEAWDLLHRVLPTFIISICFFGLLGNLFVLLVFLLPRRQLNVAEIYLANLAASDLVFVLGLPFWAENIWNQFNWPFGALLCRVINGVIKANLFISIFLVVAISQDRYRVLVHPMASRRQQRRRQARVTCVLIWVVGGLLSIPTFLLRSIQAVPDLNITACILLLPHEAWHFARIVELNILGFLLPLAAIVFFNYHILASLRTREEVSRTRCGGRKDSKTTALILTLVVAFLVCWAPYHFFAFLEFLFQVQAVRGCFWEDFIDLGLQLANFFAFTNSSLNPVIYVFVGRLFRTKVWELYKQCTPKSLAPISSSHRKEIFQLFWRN

[4] = biological target: T4, 5-hydroxytryptamine receptor 1A (Homo sapiens, UniProt P08908)
T4 sequence (P08908 whole entry): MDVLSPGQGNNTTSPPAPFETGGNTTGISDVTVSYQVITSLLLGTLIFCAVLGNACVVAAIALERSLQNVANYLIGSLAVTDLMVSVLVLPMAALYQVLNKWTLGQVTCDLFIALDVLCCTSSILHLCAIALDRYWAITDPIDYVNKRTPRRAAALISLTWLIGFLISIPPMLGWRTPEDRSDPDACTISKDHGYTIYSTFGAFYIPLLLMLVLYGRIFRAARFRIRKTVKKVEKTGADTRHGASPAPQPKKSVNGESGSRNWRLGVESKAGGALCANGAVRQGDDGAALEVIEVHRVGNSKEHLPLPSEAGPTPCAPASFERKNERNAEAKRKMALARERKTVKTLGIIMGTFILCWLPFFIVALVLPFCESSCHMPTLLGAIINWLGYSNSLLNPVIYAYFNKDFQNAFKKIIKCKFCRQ

Progesterone receptor = biological target: T5, Progesterone receptor (Homo sapiens, UniProt P06401)
T5 sequence (P06401 whole entry): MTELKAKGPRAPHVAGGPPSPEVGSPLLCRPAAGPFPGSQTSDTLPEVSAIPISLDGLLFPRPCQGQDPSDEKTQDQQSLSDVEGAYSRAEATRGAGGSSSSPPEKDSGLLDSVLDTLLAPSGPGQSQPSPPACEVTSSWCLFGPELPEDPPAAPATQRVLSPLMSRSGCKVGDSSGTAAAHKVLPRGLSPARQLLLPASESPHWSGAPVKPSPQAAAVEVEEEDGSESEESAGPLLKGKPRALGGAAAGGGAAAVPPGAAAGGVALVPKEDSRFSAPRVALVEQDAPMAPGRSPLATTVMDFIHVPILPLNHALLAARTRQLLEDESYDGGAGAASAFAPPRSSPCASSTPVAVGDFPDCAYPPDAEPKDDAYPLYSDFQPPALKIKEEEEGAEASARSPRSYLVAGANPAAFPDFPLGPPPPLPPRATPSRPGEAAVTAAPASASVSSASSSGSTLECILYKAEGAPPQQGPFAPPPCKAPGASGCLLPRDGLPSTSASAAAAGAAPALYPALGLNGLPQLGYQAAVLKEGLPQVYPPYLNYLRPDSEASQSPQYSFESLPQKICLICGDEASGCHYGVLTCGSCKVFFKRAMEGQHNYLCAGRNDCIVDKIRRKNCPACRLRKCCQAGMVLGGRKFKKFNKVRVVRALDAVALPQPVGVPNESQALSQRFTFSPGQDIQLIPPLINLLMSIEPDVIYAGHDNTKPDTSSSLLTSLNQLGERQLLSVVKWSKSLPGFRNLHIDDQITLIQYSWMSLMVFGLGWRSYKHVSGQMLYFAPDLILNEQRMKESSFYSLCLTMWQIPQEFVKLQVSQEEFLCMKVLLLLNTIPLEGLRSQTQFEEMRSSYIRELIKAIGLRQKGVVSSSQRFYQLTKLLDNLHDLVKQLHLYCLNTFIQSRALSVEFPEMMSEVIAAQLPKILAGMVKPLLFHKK

[5] = biological target: 5-hydroxytryptamine receptor 2B (Homo sapiens, UniProt P41595)
[6] = biological target: 5-hydroxytryptamine receptor 2A (Homo sapiens, UniProt P28223); assay type: functional, cell-based
[7] = biological target: Gamma-aminobutyric acid receptor subunit alpha-1 (Rattus norvegicus, UniProt P62813)
Further: assay procedure not described here.

Neurotensin receptor type 1, sequence (P30989 whole entry): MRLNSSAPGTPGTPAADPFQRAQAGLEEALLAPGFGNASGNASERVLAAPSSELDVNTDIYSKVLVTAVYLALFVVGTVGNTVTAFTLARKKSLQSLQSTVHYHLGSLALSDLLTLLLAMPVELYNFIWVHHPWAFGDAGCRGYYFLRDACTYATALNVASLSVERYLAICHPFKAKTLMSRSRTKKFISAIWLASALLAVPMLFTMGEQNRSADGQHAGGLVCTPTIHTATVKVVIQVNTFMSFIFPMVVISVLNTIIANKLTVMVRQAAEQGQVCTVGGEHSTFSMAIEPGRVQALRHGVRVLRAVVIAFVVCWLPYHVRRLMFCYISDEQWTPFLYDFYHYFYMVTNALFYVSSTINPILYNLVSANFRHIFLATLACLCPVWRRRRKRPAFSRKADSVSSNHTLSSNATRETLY
Histamine H1 receptor, sequence (P35367 whole entry): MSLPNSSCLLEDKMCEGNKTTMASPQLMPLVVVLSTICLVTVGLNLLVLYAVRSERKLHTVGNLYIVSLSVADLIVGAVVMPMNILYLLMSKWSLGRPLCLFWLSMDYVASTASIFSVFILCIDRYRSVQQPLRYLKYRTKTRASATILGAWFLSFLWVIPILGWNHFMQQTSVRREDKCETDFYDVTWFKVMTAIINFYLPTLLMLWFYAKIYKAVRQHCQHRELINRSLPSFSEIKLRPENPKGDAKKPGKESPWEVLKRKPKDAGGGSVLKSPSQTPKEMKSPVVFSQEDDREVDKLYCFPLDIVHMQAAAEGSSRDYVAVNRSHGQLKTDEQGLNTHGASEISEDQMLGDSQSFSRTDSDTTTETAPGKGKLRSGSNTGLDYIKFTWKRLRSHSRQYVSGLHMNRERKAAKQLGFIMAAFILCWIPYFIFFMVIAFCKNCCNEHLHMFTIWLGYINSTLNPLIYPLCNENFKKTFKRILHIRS
5-hydroxytryptamine receptor 2B, sequence (P41595 whole entry): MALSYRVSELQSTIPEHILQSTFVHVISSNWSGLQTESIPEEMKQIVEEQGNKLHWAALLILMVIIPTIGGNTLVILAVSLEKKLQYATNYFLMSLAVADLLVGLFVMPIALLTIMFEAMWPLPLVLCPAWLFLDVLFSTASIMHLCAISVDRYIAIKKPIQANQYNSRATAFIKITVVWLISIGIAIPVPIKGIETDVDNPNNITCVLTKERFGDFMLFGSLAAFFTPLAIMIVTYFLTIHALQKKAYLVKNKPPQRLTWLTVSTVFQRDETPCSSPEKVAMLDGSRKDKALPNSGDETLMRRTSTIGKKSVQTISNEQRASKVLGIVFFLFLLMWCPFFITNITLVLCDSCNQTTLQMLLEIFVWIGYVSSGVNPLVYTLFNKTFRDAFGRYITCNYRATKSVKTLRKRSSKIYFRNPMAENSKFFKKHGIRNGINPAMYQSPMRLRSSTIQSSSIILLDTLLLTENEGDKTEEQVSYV
5-hydroxytryptamine receptor 2A, sequence (P28223 whole entry): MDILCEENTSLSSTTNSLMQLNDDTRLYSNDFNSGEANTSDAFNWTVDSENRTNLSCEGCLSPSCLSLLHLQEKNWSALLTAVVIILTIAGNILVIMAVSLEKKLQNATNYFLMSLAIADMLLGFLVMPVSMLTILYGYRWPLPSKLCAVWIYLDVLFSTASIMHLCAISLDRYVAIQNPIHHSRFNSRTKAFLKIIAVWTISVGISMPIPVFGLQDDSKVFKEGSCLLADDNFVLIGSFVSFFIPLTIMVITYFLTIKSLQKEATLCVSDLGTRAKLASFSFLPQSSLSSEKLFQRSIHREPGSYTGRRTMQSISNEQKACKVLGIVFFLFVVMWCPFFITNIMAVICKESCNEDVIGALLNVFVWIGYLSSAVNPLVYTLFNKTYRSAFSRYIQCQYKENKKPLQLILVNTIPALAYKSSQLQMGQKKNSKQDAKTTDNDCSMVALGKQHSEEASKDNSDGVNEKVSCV
Gamma-aminobutyric acid receptor subunit alpha-1, sequence (P62813 whole entry): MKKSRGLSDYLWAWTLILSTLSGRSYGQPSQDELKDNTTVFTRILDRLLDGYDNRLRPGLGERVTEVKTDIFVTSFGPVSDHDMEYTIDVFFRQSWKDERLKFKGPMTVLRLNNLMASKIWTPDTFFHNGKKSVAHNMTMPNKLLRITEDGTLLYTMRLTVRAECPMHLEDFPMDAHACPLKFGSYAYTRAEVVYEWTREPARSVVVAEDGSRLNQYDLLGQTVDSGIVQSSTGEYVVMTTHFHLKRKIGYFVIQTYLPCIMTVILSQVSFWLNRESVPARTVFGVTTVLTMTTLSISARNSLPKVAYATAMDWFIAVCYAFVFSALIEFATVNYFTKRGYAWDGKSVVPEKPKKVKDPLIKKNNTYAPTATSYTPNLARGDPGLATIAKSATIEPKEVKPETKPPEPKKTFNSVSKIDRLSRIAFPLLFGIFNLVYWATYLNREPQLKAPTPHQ

## CC12CC3CC(C)(C1)CC(N)(C3)C2 [MEMANTINE]
[1]
  AC50: > 30 µM
[2]
  AC50: > 30 µM
Histamine H1 receptor
  AC50: > 10 µM
[3]
  AC50: > 30 µM
B1 bradykinin receptor
  AC50: > 30 µM
[4]
  AC50: > 10 µM
Progesterone receptor
  AC50: > 30 µM

## CC(CCc1ccc(O)cc1)NCCc1ccc(O)c(O)c1 (stereo not drawn) [DOBUTAMINE]
[1]
  AC50: > 30 µM
[2]
  AC50: > 30 µM
[5]
  AC50: > 10 µM
[3]
  AC50: > 30 µM
B1 bradykinin receptor
  AC50: > 30 µM
[4]
  AC50: > 10 µM
Progesterone receptor
  AC50: > 30 µM

## CCOC(=O)C1=C[C@]2(CC)CCCN3CCc4c(n1c1ccccc41)[C@@H]32 [VINPOCETINE]
[6]
  AC50: > 30 µM
[5]
  AC50: > 30 µM
Histamine H1 receptor
  AC50: > 30 µM

## CN1CCN(C2=Nc3ccccc3Oc3ccc(Cl)cc32)CC1 [LOXAPINE]
[1]
  AC50: > 30 µM
[2]
  AC50: > 30 µM
[7]
  AC50: > 30 µM
[3]
  AC50: > 30 µM
B1 bradykinin receptor
  AC50: > 30 µM
[4]
  AC50: 33.1 µM
Progesterone receptor
  AC50: > 30 µM

## CCC(=O)O[C@]1(C(=O)SCF)[C@H](C)C[C@H]2[C@@H]3C[C@H](F)C4=CC(=O)C=C[C@]4(C)[C@@]3(F)[C@@H](O)C[C@@]21C [FLUTICASONE PROPIONATE]
[1]
  AC50: > 30 µM
[2]
  AC50: > 30 µM
[5]
  AC50: > 10 µM
Histamine H1 receptor
  AC50: > 30 µM
[7]
  AC50: > 30 µM
[3]
  AC50: > 30 µM
B1 bradykinin receptor
  AC50: > 30 µM
[4]
  AC50: > 10 µM

## Oc1ccc2c(c1)CC[C@H](c1ccccc1)[C@@H]2c1ccc(OCCN2CCCC2)cc1 [LASOFOXIFENE]
[6]
  AC50: 12 µM
[5]
  AC50: 0.272 µM
Histamine H1 receptor
  AC50: 20 µM

## CCC[C@H](NC(=O)[C@@H]1[C@H]2CCC[C@H]2CN1C(=O)[C@@H](NC(=O)[C@@H](NC(=O)c1cnccn1)C1CCCCC1)C(C)(C)C)C(=O)C(=O)NC1CC1
[5]
  AC50: > 10 µM
Histamine H1 receptor
  AC50: > 10 µM
[4]
  AC50: > 10 µM
Progesterone receptor
  AC50: > 30 µM

## COc1cc(N)c(Cl)cc1C(=O)NC1CCN(Cc2ccccc2)CC1 [CLEBOPRIDE]
[6]
  AC50: > 30 µM
[5]
  AC50: 0.0079 µM
Histamine H1 receptor
  AC50: > 30 µM

## CC(N)C(O)c1ccccc1 (stereo not drawn) [PHENYLPROPANOLAMINE]
[1]
  AC50: > 30 µM
[2]
  AC50: > 30 µM
[5]
  AC50: > 10 µM
Histamine H1 receptor
  AC50: > 10 µM
[3]
  AC50: > 30 µM
B1 bradykinin receptor
  AC50: > 30 µM
[4]
  AC50: > 10 µM
Progesterone receptor
  AC50: > 30 µM

## Cc1cnc(C(=O)NCCc2ccc(S(=O)(=O)NC(=O)NC3CCCCC3)cc2)cn1 [GLIPIZIDE]
[1]
  AC50: > 30 µM
[2]
  AC50: > 30 µM
[3]
  AC50: > 30 µM
B1 bradykinin receptor
  AC50: > 30 µM
[4]
  AC50: > 10 µM
Progesterone receptor
  AC50: > 30 µM

## CCOC(=O)C1=C(C)NC(C)=C(C(=O)OC)C1c1cccc([N+](=O)[O-])c1 (stereo not drawn) [NITRENDIPINE]
[1]
  AC50: > 30 µM
[2]
  AC50: > 30 µM
[5]
  AC50: > 10 µM
[3]
  AC50: > 30 µM
B1 bradykinin receptor
  AC50: > 30 µM
[4]
  AC50: > 10 µM
Progesterone receptor
  AC50: > 30 µM

## OC1(c2ccc(Cl)cc2)c2ccccc2C2=NCCN21 (stereo not drawn) [MAZINDOL]
[1]
  AC50: > 30 µM
[2]
  AC50: > 30 µM
[5]
  AC50: > 10 µM
Histamine H1 receptor
  AC50: 7.5 µM
[3]
  AC50: 33.1 µM
B1 bradykinin receptor
  AC50: > 30 µM
[4]
  AC50: > 10 µM
Progesterone receptor
  AC50: > 30 µM

## CC(C)NCC(O)c1ccc(O)c(O)c1 (stereo not drawn) [ISOPROTERENOL]
[1]
  AC50: > 30 µM
[2]
  AC50: > 30 µM
[5]
  AC50: > 10 µM
[3]
  AC50: > 30 µM
B1 bradykinin receptor
  AC50: > 30 µM
[4]
  AC50: > 10 µM
Progesterone receptor
  AC50: > 30 µM

## CC(C)COCC(CN(Cc1ccccc1)c1ccccc1)N1CCCC1 (stereo not drawn) [BEPRIDIL]
[1]
  AC50: > 30 µM
[2]
  AC50: > 30 µM
[6]
  AC50: > 30 µM
Histamine H1 receptor
  AC50: 8.6 µM
[3]
  AC50: > 30 µM
B1 bradykinin receptor
  AC50: > 30 µM
Progesterone receptor
  AC50: > 30 µM

## CCCCC(=O)O[C@]1(C(=O)CO)[C@@H](C)C[C@H]2[C@@H]3CCC4=CC(=O)C=C[C@]4(C)[C@@]3(F)[C@@H](O)C[C@@]21C [BETAMETHASONE VALERATE]
Histamine H1 receptor
  AC50: > 10 µM
[4]
  AC50: > 10 µM
Progesterone receptor
  AC50: 0.13 µM

## CCCC(CCC)C(N)=O [VALPROMIDE]
Histamine H1 receptor
  AC50: > 10 µM
[4]
  AC50: > 10 µM
Progesterone receptor
  AC50: > 30 µM

## Cc1cc(C(C)(C)C)cc(C)c1CC1=NCCN1 [XYLOMETAZOLINE]
[5]
  AC50: 1.56 µM
Histamine H1 receptor
  AC50: > 30 µM

## O=C(O)c1cn(C2CC2)c2cc(N3CCNCC3)c(F)cc2c1=O [CIPROFLOXACIN]
[1]
  AC50: > 30 µM
[2]
  AC50: > 30 µM
[3]
  AC50: > 30 µM
B1 bradykinin receptor
  AC50: > 30 µM
Progesterone receptor
  AC50: > 30 µM

## [H]/N=C(/N)N/C(=N/[H])NCCc1ccccc1 [PHENFORMIN]
[1]
  AC50: > 30 µM
[2]
  AC50: > 30 µM
[5]
  AC50: 8.9 µM
Histamine H1 receptor
  AC50: > 30 µM
[3]
  AC50: > 30 µM
B1 bradykinin receptor
  AC50: > 30 µM
[4]
  AC50: > 10 µM
Progesterone receptor
  AC50: > 30 µM

## CN1CCC(=C2c3ccccc3CCc3cccnc32)CC1 [AZATADINE]
Histamine H1 receptor
  AC50: 0.0066 µM
[4]
  AC50: 5.69 µM
Progesterone receptor
  AC50: > 30 µM

## CN(C)CCCNc1c2ccccc2nc2cccc([N+](=O)[O-])c12 [NITRACRINE]
[5]
  AC50: 0.2 µM
Histamine H1 receptor
  AC50: 14 µM

## CNC1=Nc2ccc(Cl)cc2C(c2ccccc2)=[N+]([O-])C1 [CHLORDIAZEPOXIDE]
[4]
  AC50: > 10 µM
Progesterone receptor
  AC50: > 30 µM
